# Test results published in patent publication US6426229B1, “Chelating agent and detergent comprising the same” (Mitsubishi Rayon Co., Ltd., priority 1995, dated 2002).
# Test: Compression strength (hardening property) of powder stored under load for 2 months
# Assay type: physicochemical
# Settings: 20-30° C., relative humidity 40-70%
# Procedure: Method for the Measurement of Compression Strength
# (1) A test sample (500 g) is put in a poly-ethylene bag of 20 cm×20 cm in a room at a temperature of 20-30° C. and a relative humidity of 40-70%. The powder is levelled to an area of 20 cm×20 cm and air is forced out of the bag, and, then, the bag is sealed. This bag is further put in a kraft bag and this kraft bag is sealed.
# (2) The kraft bag of (1) is placed horizontally on a flat plate and a plate is put thereon. […]
# (3) With keeping the temperature of 20-30° C. and the relative humidity of 40-70%, the test sample is taken out after lapse of 2 months from the starting of application of load. Several test pieces (4 cm long×4 cm broad×2 cm high) are cut out from the sample.
# [1] = Load 100 (table head [Kg]; text 100 g/cm^2)
# [2] = Load 300 (table head [Kg]; text 300 g/cm^2)
# [3] = Load 200 (table head [Kg]; text 200 g/cm^2)
SMILES,Compression strength after stored for 2 months [1] [Kg/cm^2],also measured
"CN(CC(=O)O)CC(=O)O [Example 38, N-methyliminodiacetic acid]",1.1,
"CN(CC(=O)O)CC(=O)O [Example 41, N-methyliminodiacetic acid]",,Compression strength after stored for 2 months [2]: 1.0 Kg/cm^2
"C[C@@H](C(=O)[O-])N(CC(=O)[O-])CC(=O)[O-].[Na+].[Na+].[Na+] [Example 8, trisodium salt of (S)-α-alanine-N,N-diacetic acid]",1.0,
"O=C(O)C[C@H](NCCCN[C@@H](CC(=O)O)C(=O)O)C(=O)O [Example 74, (S,S)-1,3-propanediaminedisuccinic acid]",,Compression strength after stored for 2 months [2]: 1.2 Kg/cm^2
"O=C(O)CN(CCS(=O)(=O)O)CC(=O)O [compound 12, taurine-N,N-diacetic acid, reference compound]",3.3,
"O=C([O-])C[C@H](NCCN[C@@H](CC(=O)[O-])C(=O)[O-])C(=O)[O-].[Na+].[Na+].[Ni+2] [compound 28, nickel disodium (S,S)-ethylenediaminedisuccinate, reference compound]",2.5,
"O=C([O-])C[C@H](NCCCN[C@@H](CC(=O)[O-])C(=O)[O-])C(=O)[O-].[Na+].[Na+].[Na+].[Na+] [Example 59, tetrasodium (S,S)-1,3-propanediaminedisuccinate]",,Compression strength after stored for 2 months [2]: 1.1 Kg/cm^2
"O=C([O-])CC(NCCCNC(CC(=O)[O-])C(=O)[O-])C(=O)[O-].[Na+].[Na+].[Na+].[Na+] (centres unmarked) [Example 48, tetrasodium 1,3-propanediaminedisuccinate]",,Compression strength after stored for 2 months [3]: 1.0 Kg/cm^2
"O=C(O)CN[C@@H](CC(=O)O)C(=O)O [compound 5, (S)-aspartic acid-N-monoacetic acid, reference compound]",2.8,
"O=C(O)CN(CC(=O)O)c1ccccc1C(=O)O [compound 14, anthranilic acid-N,N-diacetic acid, reference compound]",2.5,
"CN(CC(=O)[O-])CC(=O)[O-].[Na+].[Na+] [Example 32, disodium N-methyliminodiacetate]",,Compression strength after stored for 2 months [2]: 0.8 Kg/cm^2
"CN(CC(=O)O)CC(=O)O [Example 35, N-methyliminodiacetic acid]",,Compression strength after stored for 2 months [3]: 0.8 Kg/cm^2
"O=C(O)C[C@@H](C(=O)O)N(CC(=O)O)CC(=O)O [compound 7, (S)-aspartic acid-N,N-diacetic acid, reference compound]",2.3,
"O=C([O-])C[C@H](NCC(O)CN[C@@H](CC(=O)[O-])C(=O)[O-])C(=O)[O-].[Na+].[Na+].[Na+].[Na+] [compound 20, tetrasodium (S,S)-2-hydroxy-1,3-propanediaminedisuccinate, reference compound]",2.7,
"O=C([O-])C[C@H](NCCN[C@@H](CC(=O)[O-])C(=O)[O-])C(=O)[O-].[Na+].[Na+].[Na+].[Na+] [Example 52, tetrasodium (S,S)-ethylenediaminedisuccinate]",1.0,
"CN(CC(=O)O)CC(=O)O [compound 13, N-methyliminodiacetic acid, reference compound]",2.7,
"O=C(O)CN[C@@H](CC(=O)O)C(=O)O [Example 17, (S)-aspartic acid-N-monoacetic acid]",0.9,
"O=C([O-])CN(CCS(=O)(=O)[O-])CC(=O)[O-].[Na+].[Na+].[Na+] [compound 9, trisodium salt of taurine-N,N-diacetic acid, reference compound]",2.5,
"O=C([O-])C[C@H](NCCN[C@@H](CC(=O)[O-])C(=O)[O-])C(=O)[O-].[Na+].[Na+].[Na+].[Na+] [Example 57, tetrasodium (S,S)-ethylenediaminedisuccinate]",,Compression strength after stored for 2 months [2]: 0.9 Kg/cm^2
"O=C(O)CN[C@@H](CC(=O)O)C(=O)O [Example 13, (S)-aspartic acid-N-monoacetic acid]",,Compression strength after stored for 2 months [3]: 1.1 Kg/cm^2
"O=C([O-])CN(CCS(=O)(=O)[O-])CC(=O)[O-].[Na+].[Na+].[Na+] [Example 31, trisodium salt of taurine-N,N-diacetic acid]",,Compression strength after stored for 2 months [2]: 1.0 Kg/cm^2
"O=C(O)CN(CCS(=O)(=O)O)CC(=O)O [Example 40, taurine-N,N-diacetic acid]",,Compression strength after stored for 2 months [2]: 0.9 Kg/cm^2

SMILES,Compression strength after stored for 2 months [1] [Kg/cm^2],also measured
"O=C(O)C[C@@H](C(=O)O)N(CC(=O)O)CC(=O)O [Example 23, (S)-aspartic acid-N,N-diacetic acid]",,Compression strength after stored for 2 months [2]: 1.0 Kg/cm^2
"O=C(O)C[C@H](NCCN[C@@H](CC(=O)O)C(=O)O)C(=O)O [Example 67, (S,S)-ethylenediaminedisuccinic acid]",1.1,
"O=C([O-])CC(NCCNC(CC(=O)[O-])C(=O)[O-])C(=O)[O-].[Na+].[Na+].[Ni+2] (centres unmarked) [Example 78, nickel disodium ethylenediaminedisuccinate]",,Compression strength after stored for 2 months [3]: 1.0 Kg/cm^2
"O=C(O)C[C@H](NCCCN[C@@H](CC(=O)O)C(=O)O)C(=O)O [Example 69, (S,S)-1,3-propanediaminedisuccinic acid]",1.0,
"O=C([O-])CN(CC(=O)[O-])c1ccccc1C(=O)[O-].[Na+].[Na+].[Na+] [Example 27, trisodium salt of anthranilic acid-N,N-diacetic acid]",,Compression strength after stored for 2 months [3]: 1.0 Kg/cm^2
"O=C([O-])C[C@@H](C(=O)[O-])N(CC(=O)[O-])CC(=O)[O-].[Na+].[Na+].[Na+].[Na+] [Example 7, tetrasodium salt of (S)-aspartic acid-N,N-diacetic acid]",1.3,
"O=C(O)C[C@H](NCCN[C@@H](CC(=O)O)C(=O)O)C(=O)O [Example 72, (S,S)-ethylenediaminedisuccinic acid]",,Compression strength after stored for 2 months [2]: 1.3 Kg/cm^2
"O=C(O)CCN[C@@H](CC(=O)O)C(=O)O [Example 18, (S)-aspartic acid-N-monopropionic acid]",1.2,
"O=C(O)CN[C@@H](CC(=O)O)C(=O)O [Example 21, (S)-aspartic acid-N-monoacetic acid]",,Compression strength after stored for 2 months [2]: 0.8 Kg/cm^2
"O=C([O-])C[C@H](NCCCN[C@@H](CC(=O)[O-])C(=O)[O-])C(=O)[O-].[Na+].[Na+].[Na+].[Na+] [Example 49, tetrasodium (S,S)-1,3-propanediaminedisuccinate]",,Compression strength after stored for 2 months [3]: 1.3 Kg/cm^2
"CN(CC(=O)[O-])CC(=O)[O-].[Na+].[Na+] [Example 29, disodium N-methyliminodiacetate]",1.2,
"O=C(O)CC(NCCCNC(CC(=O)O)C(=O)O)C(=O)O (centres unmarked) [Example 68, 1,3-propanediaminedisuccinic acid]",1.2,
"O=C(O)CCN[C@@H](CC(=O)O)C(=O)O [Example 14, (S)-aspartic acid-N-monopropionic acid]",,Compression strength after stored for 2 months [3]: 0.6 Kg/cm^2
"O=C(O)C[C@H](NCC(O)CN[C@@H](CC(=O)O)C(=O)O)C(=O)O [Example 75, (S,S)-2-hydroxy-1,3-propanediaminedisuccinic acid]",,Compression strength after stored for 2 months [2]: 1.0 Kg/cm^2
"O=C([O-])CN(CC(=O)[O-])c1ccccc1C(=O)[O-].[Na+].[Na+].[Na+] [Example 30, trisodium salt of anthranilic acid-N,N-diacetic acid]",1.2,
"O=C([O-])CC(NCCCNC(CC(=O)[O-])C(=O)[O-])C(=O)[O-].[Na+].[Na+].[Na+].[Na+] (centres unmarked) [compound 18, tetrasodium 1,3-propanediaminedisuccinate, reference compound]",3.0,
"O=C([O-])C[C@H](NCCCN[C@@H](CC(=O)[O-])C(=O)[O-])C(=O)[O-].[Fe+3].[NH4+] [Example 82, iron ammonium (S,S)-1,3-propanediaminedisuccinate]",,Compression strength after stored for 2 months [3]: 1.1 Kg/cm^2
"O=C([O-])CN(CC(=O)[O-])c1ccccc1C(=O)[O-].[Fe+3] [Example 44, iron salt of anthranilic acid-N,N-diacetic acid]",1.0,
"O=C([O-])CC(NCCCNC(CC(=O)[O-])C(=O)[O-])C(=O)[O-].[Na+].[Na+].[Na+].[Na+] (centres unmarked) [Example 58, tetrasodium 1,3-propanediaminedisuccinate]",,Compression strength after stored for 2 months [2]: 1.0 Kg/cm^2
"O=C([O-])C[C@H](NCCN[C@@H](CC(=O)[O-])C(=O)[O-])C(=O)[O-].[Fe+3].[NH4+] [compound 26, iron ammonium (S,S)-ethylenediaminedisuccinate, reference compound]",2.7,
"O=C([O-])CN(CCS(=O)(=O)[O-])CC(=O)[O-].[Na+].[Na+].[Na+] [Example 25, trisodium salt of taurine-N,N-diacetic acid]",,Compression strength after stored for 2 months [3]: 1.1 Kg/cm^2
"O=C(O)CCN[C@@H](CC(=O)O)C(=O)O [Example 22, (S)-aspartic acid-N-monopropionic acid]",,Compression strength after stored for 2 months [2]: 0.9 Kg/cm^2
